The text below walks through data of patent US12377167B2, “Application of AuCs or substances containing AuCs in the preparation of drugs for preventing and/or treating glaucoma” (Shenzhen Profound-View Pharma Tech Co., Ltd, priority 2016, dated 2025).

Test [1] has as its system RGC-5 cells. The experiment in a line: H2O2-induced RGC-5 cell oxidative stress injury model, CCK-8 cell viability. In kind it is cell-based.
Experimental: (§1) The cell viability was used as an index in the experiment of this embodiment.
RGC-5 cells in logarithmic growth phase were diluted with complete medium (MEM+10% FBS+1% penicillin-streptomycin) to get a cell suspension in a density of 5×10^4/mL. The suspension was inoculated 100 μL per well into a 96-well plate, and cultivated in an incubator with 5% CO2 at 37° C. One of administration ways in an experiment group is: The original culture medium was removed when the cells attached to the wells, and 50 μL test substances (the test substances were: three kinds of L-NIBC-modified AuCs in particle sizes of 2.6 nm, 1.8 nm or 1.1 nm, or four kinds of L-NIBC-modified gold nanoparticles in particle sizes of 18.2 nm, 10.1 nm, 6.0 nm or 3.6 nm, or L-NIBC molecules not bonded with AuCs or gold nanoparticles as reference) solutions at different concentrations prepared by maintenance medium (DMEM medium+2% FBS+1% penicillin-streptomycin) were added to different wells to make the final concentration be 0.01, 0.05, 0.1, 0.5, 1, 5 and 10 ppm respectively, then 50 μL of H2O2 (the final concentration was 100 μM) was added to the administration group and model group after 2 hours' pretreatment. The cells were incubated for 24 h, then 10% CCK-8 was added to each well and incubated for 4 h. […]
For test [2], the target named is T1, Aβ(1-40) (Homo sapiens, UniProt P05067).
T1 construct: Freeze-dried powder of amyloid polypeptide Aβ(1-40) (Invitrogen Corp.); purchased Invitrogen Corp
T1 sequence (P05067 672-711 limits assumed): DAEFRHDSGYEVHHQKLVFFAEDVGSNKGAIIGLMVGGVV
Nature of the test: In vitro Aβ(1-40) aggregation kinetics, ThT fluorescent labeling method. The conditions noted are these: 20 μM Aβ(1-40); L-NIBC 1.0 and 10.0 ppm; gold nanoparticles up to 20.0 ppm. In kind it is biochemical. The source says: As described above, Aβ plays an important role in the pathogenesis of glaucoma and is an important target for treatment of glaucoma based on the optic nerve protection mechanism. […] Moreover, the function is from AuCs other than ligand. […] Thioflavin T (abbreviation: ThT) is a dye specifically for dyeing amyloid fibers. […] When it encounters amyloid polypeptides or proteins with a fiber structure, it will immediately couple with the amyloid polypeptides or proteins and its fluorescence intensity will increase exponentially. Just because of this property, ThT is widely used as a marker to monitor amyloidosis of peptides or proteins. The fibrosis process of Aβ(1-40) is also a nucleation-controlled polymerization process. Therefore, the growth curve of Aβ(1-40) fiber measured by ThT fluorescent labeling method is mainly divided into three stages: Initial stage, growth stage and platform stage. The initial stage is mainly a stage when Aβ(1-40) undergoes conformational transition to form misfolding and then aggregates and nucleates. […] All the Aβ(1-40) PBS solutions for the experiments were prepared freshly. […] The samples were incubated continuously in a 96-well plate at 37° C. by ThT fluorescent labeling method, and monitored the fluorescence intensity by microplate reader once every 10 minutes.

Test [3] concerns the target T1, Aβ(1-40). The experiment in a line: AFM topography of Aβ(1-40) after 48 h co-incubation. In kind it is biochemical. The conditions noted are these: co-incubated for 48 h. How it is done: Panel A is the AFM topography after Aβ(1-40) was incubated alone for 48 h. Panel B is an AFM topography after Aβ(1-40) was coincubated with L-NIBC for 48 h. Panel C and panel D are AFM topographies after Aβ(1-40) was coincubated with gold nanoparticles with an average particle size of 6.0 nm and 3.6 nm respectively (modified with L-NIBC) for 48 h. And panel E is an AFM topography after Aβ(1-40) was coincubated with AuCs in an average particle size of 1.8 nm (modified with L-NIBC) for 48 h.

For test [4], the system named is RGC-5 cells. Nature of the test: Sodium nitroprusside (SNP)-induced RGC-5 apoptosis model, CCK-8 cell viability. In kind it is cell-based.
Experimental: as §1
RGC-5 cells in logarithmic growth phase were diluted with complete medium to get a cell suspension in a density of 5×10^4/mL. The suspension was inoculated 100 μL per well into a 96-well plate, and cultivated in an incubator with 5% CO2 at 37° C. […] The absorbance value of each well at 450 nm wave length was measured to evaluate the pre-protective effect of AuCs on SNP injury. […] The absorbance value of each well at 450 nm wave length was measured to evaluate the curative effect of AuCs on SNP injury. […]
RGC-5 cells in logarithmic growth phase were diluted with complete medium to get a cell suspension in a density of 5×10^4/mL. […] The absorbance value of each well at 450 nm wave length was measured to evaluate the pre-protective effect of AuCs on SNP injury. […]
In test [5] the test system is RGC-5 cells. Nature of the test: NMDA-induced RGC-5 cell excitotoxicity model, CCK-8. In kind it is cell-based. The conditions noted are these: 250 μM NMDA, 0.01-10 ppm.
Experimental: This embodiment used cell survival rate as an index.
RGC-5 cells in logarithmic growth phase were diluted with complete medium to get a cell suspension in a density of 5×10^4/mL. The suspension was inoculated 100 μL per well into a 96-well plate, and cultivated in an incubator with 5% CO2 at 37° C. One of administration ways in an experiment group is: The original culture medium was removed when the cells attached to the wells, and 50 μL test substances (the test substances were: three kinds of L-NIBC-modified AuCs in particle sizes of 2.6 nm, 1.8 nm or 1.1 nm, or four kinds of L-NIBC-modified gold nanoparticles in particle sizes of 18.2 nm, 10.1 nm, 6.0 nm or 3.6 nm, or L-NIBC molecules not bonded with AuCs or gold nanoparticles as reference) solutions at different concentrations prepared by maintenance medium were added to different wells to make the final concentration be 0.01, 0.05, 0.1, 0.5, 1, 5 and 10 ppm respectively, then 50 μL of NMDA (the final concentration was 250 μM) was added to the administration group and model group after 2 hours' pretreatment. […] The absorbance value of each well at 450 nm wave length was measured to evaluate the pre-protective effect of AuCs on NMDA injury. […] The absorbance value of each well at 450 nm wave length was measured to evaluate the curative effect of AuCs on NMDA injury. […]

For `CC(C)C(=O)N[C@@H](CS)C(=O)O` [L-NIBC, N-isobutyryl-L-cysteine], the “effect on cell viability / RGC apoptosis triggered by oxidative stress” value with RGC-5 cells [1] (H2O2-injured RGC cell model, CCK-8) is on record as “did not have an obvious effect”. Moreover, the viability at 10 ppm with RGC-5 cells [1] (RGC5, 10 ppm, H2O2, 24 h, read-out: cell viability relative to the blank control group (set to be 100%)) amounted to 47.5 ± 6.6%; with RGC-5 cells [4] (RGC5, 10 ppm, 700 μM SNP, 24 h, read-out: cell viability relative to the blank control group (set to be 100%)) it was 52.8 ± 8%. Further, the “effect on Aβ(1-40) amyloidosis kinetics” value at Aβ(1-40) [2] was “no obvious effect on Aβ(1-40) amyloidosis kinetics”. In addition, the “Aβ(1-40) fibers in AFM topography” value on Aβ(1-40) [3] is “no obvious effect on the formation of Aβ(1-40) fibers”. Besides, the “effect on cell viability / SNP-induced RGC apoptosis” value in the test on RGC-5 cells [4] (SNP-injured RGC cell model, CCK-8) is listed as “did not have an obvious protective effect”. Also, the “effect on cell viability / neurotransmitter mediated excitatory RGC apoptosis” value with RGC-5 cells [5] is reported as “did not have an obvious effect”.
